According to patent US9340590B2 (priority 2011, dated 2016):
pIC50: −log10 of the molar value. Positions of bridges follow the written chain, without caps; N, C: chain ends. Non-standard residues stand in square brackets, D forms with d. Residues, ends and D or L forms follow the SMILES beside them. Phe(4-NH2) = Nc1ccc(C[C@H](N)C(=O)O)cc1; Arg(Me2s) = CN=C(NC)NCCC[C@H](N)C(=O)O; Arg(Me) = CNC(=N)NCCC[C@H](N)C(=O)O; hArg = N=C(N)NCCCC[C@H](N)C(=O)O; 3Pal = N[C@@H](Cc1cccnc1)C(=O)O; Orn = NCCC[C@H](N)C(=O)O; Dap = NC[C@H](N)C(=O)O

Key:
Assay in all cases: cell-based
[1] = molecular target: hNav1.7 (Homo sapiens, UniProt Q15858); assay type: cell-based; conditions: IonWorks Quattro, use-dependent block, hNav1.7; read-out: IWQ Use Nav1.7
[2] = molecular target: hNav1.5 (Homo sapiens, UniProt Q14524); conditions: IonWorks Quattro, use-dependent block, hNav1.5; read-out: IWQ Use Nav1.5
[3] = molecular target: hNav1.3 (Homo sapiens, UniProt Q9NY46); conditions: IonWorks Quattro, use-dependent block, hNav1.3; read-out: IWQ Use Nav1.3
Chain of hNav1.3 (Q9NY46 whole entry, looked up): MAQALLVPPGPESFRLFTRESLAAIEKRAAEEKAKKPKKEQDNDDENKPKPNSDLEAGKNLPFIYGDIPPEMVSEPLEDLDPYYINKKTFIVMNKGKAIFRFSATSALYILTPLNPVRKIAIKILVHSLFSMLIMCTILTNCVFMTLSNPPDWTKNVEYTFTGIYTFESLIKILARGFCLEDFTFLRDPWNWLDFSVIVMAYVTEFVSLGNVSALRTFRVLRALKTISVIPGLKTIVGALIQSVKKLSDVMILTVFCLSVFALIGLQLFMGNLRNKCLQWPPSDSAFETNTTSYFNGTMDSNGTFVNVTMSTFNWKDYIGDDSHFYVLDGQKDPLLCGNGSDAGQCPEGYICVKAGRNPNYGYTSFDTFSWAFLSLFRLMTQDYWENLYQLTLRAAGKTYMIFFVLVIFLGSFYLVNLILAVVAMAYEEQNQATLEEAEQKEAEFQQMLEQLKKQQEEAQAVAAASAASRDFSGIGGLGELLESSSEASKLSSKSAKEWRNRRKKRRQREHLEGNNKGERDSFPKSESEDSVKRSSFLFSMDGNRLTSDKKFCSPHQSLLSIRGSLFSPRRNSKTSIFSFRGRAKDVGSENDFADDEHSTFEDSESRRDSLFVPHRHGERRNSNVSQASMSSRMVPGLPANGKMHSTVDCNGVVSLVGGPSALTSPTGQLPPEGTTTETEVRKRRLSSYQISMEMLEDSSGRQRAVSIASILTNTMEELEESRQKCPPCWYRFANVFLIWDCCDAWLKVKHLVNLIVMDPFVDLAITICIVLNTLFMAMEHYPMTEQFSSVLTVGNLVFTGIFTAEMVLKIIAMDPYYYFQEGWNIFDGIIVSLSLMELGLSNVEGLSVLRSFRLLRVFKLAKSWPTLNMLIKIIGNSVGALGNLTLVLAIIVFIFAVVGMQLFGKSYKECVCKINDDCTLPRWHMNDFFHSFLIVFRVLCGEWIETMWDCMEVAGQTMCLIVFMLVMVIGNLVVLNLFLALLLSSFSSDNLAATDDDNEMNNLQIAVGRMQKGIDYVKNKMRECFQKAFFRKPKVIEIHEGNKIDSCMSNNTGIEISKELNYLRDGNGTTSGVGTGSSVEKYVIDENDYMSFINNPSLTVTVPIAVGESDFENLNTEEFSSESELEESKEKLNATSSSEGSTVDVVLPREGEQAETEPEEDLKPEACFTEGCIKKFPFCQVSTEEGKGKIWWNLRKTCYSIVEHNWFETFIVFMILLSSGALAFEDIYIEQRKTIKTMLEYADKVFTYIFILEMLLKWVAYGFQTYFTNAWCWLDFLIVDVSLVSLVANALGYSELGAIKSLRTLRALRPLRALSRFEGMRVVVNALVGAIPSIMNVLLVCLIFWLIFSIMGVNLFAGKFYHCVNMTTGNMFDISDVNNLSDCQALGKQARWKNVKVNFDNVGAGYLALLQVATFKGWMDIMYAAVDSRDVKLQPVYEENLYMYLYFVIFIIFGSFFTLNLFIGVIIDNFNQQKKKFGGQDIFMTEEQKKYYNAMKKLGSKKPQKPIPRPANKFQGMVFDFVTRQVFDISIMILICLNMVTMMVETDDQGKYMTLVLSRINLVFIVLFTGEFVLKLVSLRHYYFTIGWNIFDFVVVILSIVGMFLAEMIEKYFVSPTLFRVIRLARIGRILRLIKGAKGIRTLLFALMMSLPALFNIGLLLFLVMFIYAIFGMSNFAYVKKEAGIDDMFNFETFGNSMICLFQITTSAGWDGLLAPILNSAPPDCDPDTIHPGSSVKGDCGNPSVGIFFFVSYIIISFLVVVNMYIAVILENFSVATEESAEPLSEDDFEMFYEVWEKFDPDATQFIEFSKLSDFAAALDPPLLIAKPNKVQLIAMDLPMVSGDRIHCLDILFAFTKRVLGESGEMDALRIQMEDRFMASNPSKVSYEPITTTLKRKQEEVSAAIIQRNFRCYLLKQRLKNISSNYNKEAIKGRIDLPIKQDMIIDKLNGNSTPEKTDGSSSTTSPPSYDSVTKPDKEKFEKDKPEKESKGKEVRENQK

Chain of hNav1.5 (Q14524 whole entry, looked up): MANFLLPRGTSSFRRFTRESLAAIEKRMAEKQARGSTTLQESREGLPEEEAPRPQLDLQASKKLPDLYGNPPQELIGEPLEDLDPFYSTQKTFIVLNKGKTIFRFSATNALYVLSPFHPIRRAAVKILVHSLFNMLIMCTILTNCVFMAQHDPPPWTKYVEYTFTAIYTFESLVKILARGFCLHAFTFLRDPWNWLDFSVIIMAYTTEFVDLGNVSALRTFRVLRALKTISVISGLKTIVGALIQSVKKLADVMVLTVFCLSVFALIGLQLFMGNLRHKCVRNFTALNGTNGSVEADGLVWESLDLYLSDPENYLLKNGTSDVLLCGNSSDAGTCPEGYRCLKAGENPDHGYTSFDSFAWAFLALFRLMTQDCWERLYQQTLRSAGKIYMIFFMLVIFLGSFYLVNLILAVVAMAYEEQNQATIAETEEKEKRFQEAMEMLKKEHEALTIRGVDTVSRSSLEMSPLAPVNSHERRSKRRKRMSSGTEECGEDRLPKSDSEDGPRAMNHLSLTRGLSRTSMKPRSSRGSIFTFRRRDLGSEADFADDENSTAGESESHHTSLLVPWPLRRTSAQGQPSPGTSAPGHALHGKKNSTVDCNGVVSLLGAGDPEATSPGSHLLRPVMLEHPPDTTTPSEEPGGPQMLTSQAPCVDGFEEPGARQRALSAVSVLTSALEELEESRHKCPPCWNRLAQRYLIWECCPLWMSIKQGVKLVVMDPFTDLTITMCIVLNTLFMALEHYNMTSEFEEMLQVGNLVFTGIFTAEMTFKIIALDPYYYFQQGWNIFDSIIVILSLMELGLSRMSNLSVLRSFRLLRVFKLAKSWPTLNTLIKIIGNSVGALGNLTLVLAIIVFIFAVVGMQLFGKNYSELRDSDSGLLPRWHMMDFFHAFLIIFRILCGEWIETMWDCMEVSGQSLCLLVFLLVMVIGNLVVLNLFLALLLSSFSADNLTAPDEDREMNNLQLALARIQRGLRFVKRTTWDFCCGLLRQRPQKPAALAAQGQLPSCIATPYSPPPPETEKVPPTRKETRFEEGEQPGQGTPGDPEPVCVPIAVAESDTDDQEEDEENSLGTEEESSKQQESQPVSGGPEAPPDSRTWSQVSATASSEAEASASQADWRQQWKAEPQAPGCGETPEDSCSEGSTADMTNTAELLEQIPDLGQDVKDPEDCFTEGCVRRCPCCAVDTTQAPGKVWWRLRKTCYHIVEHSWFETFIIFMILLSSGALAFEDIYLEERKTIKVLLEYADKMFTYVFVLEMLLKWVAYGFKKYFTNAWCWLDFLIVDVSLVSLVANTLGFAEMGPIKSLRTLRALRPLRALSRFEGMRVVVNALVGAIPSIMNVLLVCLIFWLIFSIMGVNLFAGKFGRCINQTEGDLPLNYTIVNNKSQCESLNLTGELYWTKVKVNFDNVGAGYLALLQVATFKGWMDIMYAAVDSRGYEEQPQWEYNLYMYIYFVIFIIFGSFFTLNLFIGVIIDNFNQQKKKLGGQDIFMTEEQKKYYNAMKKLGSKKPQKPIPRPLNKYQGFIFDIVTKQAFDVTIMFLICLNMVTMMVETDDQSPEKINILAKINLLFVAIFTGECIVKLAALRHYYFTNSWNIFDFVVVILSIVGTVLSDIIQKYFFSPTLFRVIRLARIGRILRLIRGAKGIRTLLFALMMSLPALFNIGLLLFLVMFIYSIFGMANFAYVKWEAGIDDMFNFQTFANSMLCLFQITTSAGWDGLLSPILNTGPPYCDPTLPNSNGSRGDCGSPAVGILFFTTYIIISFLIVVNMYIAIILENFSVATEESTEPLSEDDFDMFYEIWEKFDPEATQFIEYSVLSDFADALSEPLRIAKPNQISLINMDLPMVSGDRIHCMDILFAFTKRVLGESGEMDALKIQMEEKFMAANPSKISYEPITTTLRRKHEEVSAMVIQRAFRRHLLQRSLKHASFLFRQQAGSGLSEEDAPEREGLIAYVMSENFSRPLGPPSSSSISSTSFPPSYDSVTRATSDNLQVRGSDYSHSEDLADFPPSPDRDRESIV

Row | SMILES | pIC50 [1] | pIC50 [2] | pIC50 [3]
1 | CC[C@H](C)[C@@H]1NC(=O)[C@@H]2CSSC[C@@H]3NC(=O)[C@H](C(C)C)NC(=O)[C@H](CC(C)C)NC(=O)[C@H](CC(N)=O)NC(=O)[C@@H]4CCCN4C(=O)[C@H](CCCNC(=N)N)NC(=O)[C@H](CSSC[C@H](NC(=O)[C@@H](N)CC(=O)O)C(=O)N[C@@H](CC(C)C)C(=O)NCC(=O)N[C@@H](C)C(=O)N[C@@H](CCSC)C(=O)N[C@@H](CCCNC(=N)N)C(=O)N[C@@H](CCCCN)C(=O)N2)NC(=O)[C@H](CSSC[C@@H](C(=O)N[C@@H](CCCCN)C(=O)N[C@@H](Cc2ccc(O)cc2)C(=O)N[C@H](C(=O)N[C@@H](Cc2ccccc2)C(N)=O)C(C)C)NC(=O)[C@H](Cc2c[nH]c4ccccc24)NC(=O)[C@H](Cc2cccnc2)NC(=O)[C@H](Cc2c[nH]cn2)NC(=O)[C@H]([C@@H](C)O)NC(=O)[C@H](CCCNC(=N)N)NC(=O)[C@H](CO)NC3=O)NC(=O)[C@H](CCCCN)NC(=O)[C@H](CC(=O)O)NC(=O)[C@H](CC(N)=O)NC(=O)[C@H](CC(=O)O)NC(=O)[C@@H]2CCCN2C1=O [compound 740] (H-DCLGAMRKCIPDNDKCCRPNLVCSRTH[3Pal]WCKYVF-NH2; disulfide 2-17, 9-23, 16-30) | 5.82 | 4.51 | < 5.30
2 | CC[C@H](C)[C@@H]1NC(=O)[C@@H]2CSSC[C@@H]3NC(=O)[C@H](C(C)C)NC(=O)[C@H](CC(C)C)NC(=O)[C@H](CC(N)=O)NC(=O)[C@@H]4CCCN4C(=O)[C@H](CCCNC(=N)N)NC(=O)[C@H](CSSC[C@H](NC(=O)[C@@H](N)CC(=O)O)C(=O)N[C@@H](CC(C)C)C(=O)NCC(=O)N[C@@H](C)C(=O)N[C@@H](CCSC)C(=O)N[C@@H](CCCNC(=N)N)C(=O)N[C@@H](CCCCN)C(=O)N2)NC(=O)[C@H](CSSC[C@@H](C(=O)N[C@@H](CCCCN)C(=O)N[C@@H](Cc2ccc(O)cc2)C(=O)N[C@H](C(=O)N[C@@H](Cc2ccccc2)C(N)=O)C(C)C)NC(=O)[C@H](Cc2c[nH]c4ccccc24)NC(=O)[C@H](Cc2ccc(N)cc2)NC(=O)[C@H](Cc2c[nH]cn2)NC(=O)[C@H]([C@@H](C)O)NC(=O)[C@H](CCCNC(=N)N)NC(=O)[C@H](CO)NC3=O)NC(=O)[C@H](CCCCN)NC(=O)[C@H](CC(=O)O)NC(=O)[C@H](CC(N)=O)NC(=O)[C@H](CC(=O)O)NC(=O)[C@@H]2CCCN2C1=O [compound 741] (H-DCLGAMRKCIPDNDKCCRPNLVCSRTH[Phe(4-NH2)]WCKYVF-NH2; disulfide 2-17, 9-23, 16-30) | 5.96 | 4.61 | 5.64
3 | CC[C@H](C)[C@@H]1NC(=O)[C@@H]2CSSC[C@@H]3NC(=O)[C@H](C(C)C)NC(=O)[C@H](CC(C)C)NC(=O)[C@H](CC(N)=O)NC(=O)[C@@H]4CCCN4C(=O)[C@H](CCCNC(=N)N)NC(=O)[C@H](CSSC[C@H](NC(=O)[C@@H](N)CC(=O)O)C(=O)N[C@@H](CC(C)C)C(=O)NCC(=O)N[C@@H](C)C(=O)N[C@@H](CCSC)C(=O)N[C@@H](CCCNC(=N)N)C(=O)N[C@@H](CCCCN)C(=O)N2)NC(=O)[C@H](CSSC[C@@H](C(=O)N[C@@H](CCCCN)C(=O)N[C@@H](Cc2ccc(O)cc2)C(=O)N[C@H](C(=O)N[C@@H](Cc2ccccc2)C(N)=O)C(C)C)NC(=O)[C@H](Cc2c[nH]c4ccccc24)NC(=O)[C@H](CCCCNC(C)=O)NC(=O)[C@H](Cc2c[nH]cn2)NC(=O)[C@H]([C@@H](C)O)NC(=O)[C@H](CCCNC(=N)N)NC(=O)[C@H](CO)NC3=O)NC(=O)[C@H](CCCCN)NC(=O)[C@H](CC(=O)O)NC(=O)[C@H](CC(N)=O)NC(=O)[C@H](CC(=O)O)NC(=O)[C@@H]2CCCN2C1=O [compound 742] (H-DCLGAMRKCIPDNDKCCRPNLVCSRTHK(Ac)WCKYVF-NH2; disulfide 2-17, 9-23, 16-30) | 5.96 | 4.64 | 5.60
4 | CC[C@H](C)[C@@H]1NC(=O)[C@@H]2CSSC[C@@H]3NC(=O)[C@H](C(C)C)NC(=O)[C@H](CC(C)C)NC(=O)[C@H](CC(N)=O)NC(=O)[C@@H]4CCCN4C(=O)[C@H](CCCNC(=N)N)NC(=O)[C@H](CSSC[C@H](NC(=O)[C@@H](N)CC(=O)O)C(=O)N[C@@H](CC(C)C)C(=O)NCC(=O)N[C@@H](C)C(=O)N[C@@H](CCSC)C(=O)N[C@@H](CCCNC(=N)N)C(=O)N[C@@H](CCCCN)C(=O)N2)NC(=O)[C@H](CSSC[C@@H](C(=O)N[C@@H](CCCCN)C(=O)N[C@@H](Cc2ccc(O)cc2)C(=O)N[C@H](C(=O)N[C@@H](Cc2ccccc2)C(N)=O)C(C)C)NC(=O)[C@H](Cc2c[nH]c4ccccc24)NC(=O)[C@H](CCCNC(=NC)NC)NC(=O)[C@H](Cc2c[nH]cn2)NC(=O)[C@H]([C@@H](C)O)NC(=O)[C@H](CCCNC(=N)N)NC(=O)[C@H](CO)NC3=O)NC(=O)[C@H](CCCCN)NC(=O)[C@H](CC(=O)O)NC(=O)[C@H](CC(N)=O)NC(=O)[C@H](CC(=O)O)NC(=O)[C@@H]2CCCN2C1=O [compound 743] (H-DCLGAMRKCIPDNDKCCRPNLVCSRTH[Arg(Me2s)]WCKYVF-NH2; disulfide 2-17, 9-23, 16-30) | 6.66 | 4.58 | 5.96
5 | CC[C@H](C)[C@@H]1NC(=O)[C@@H]2CSSC[C@@H]3NC(=O)[C@H](C(C)C)NC(=O)[C@H](CC(C)C)NC(=O)[C@H](CC(N)=O)NC(=O)[C@@H]4CCCN4C(=O)[C@H](CCCNC(=N)N)NC(=O)[C@H](CSSC[C@H](NC(=O)[C@@H](N)CC(=O)O)C(=O)N[C@@H](CC(C)C)C(=O)NCC(=O)N[C@@H](C)C(=O)N[C@@H](CCSC)C(=O)N[C@@H](CCCNC(=N)N)C(=O)N[C@@H](CCCCN)C(=O)N2)NC(=O)[C@H](CSSC[C@@H](C(=O)N[C@@H](CCCCN)C(=O)N[C@@H](Cc2ccc(O)cc2)C(=O)N[C@H](C(=O)N[C@@H](Cc2ccccc2)C(N)=O)C(C)C)NC(=O)[C@H](Cc2c[nH]c4ccccc24)NC(=O)[C@H](CCCCNC(=N)N)NC(=O)[C@H](Cc2c[nH]cn2)NC(=O)[C@H]([C@@H](C)O)NC(=O)[C@H](CCCNC(=N)N)NC(=O)[C@H](CO)NC3=O)NC(=O)[C@H](CCCCN)NC(=O)[C@H](CC(=O)O)NC(=O)[C@H](CC(N)=O)NC(=O)[C@H](CC(=O)O)NC(=O)[C@@H]2CCCN2C1=O [compound 744] (H-DCLGAMRKCIPDNDKCCRPNLVCSRTH[hArg]WCKYVF-NH2; disulfide 2-17, 9-23, 16-30) | 6.33 | 4.40 | 6.09
6 | CC[C@H](C)[C@@H]1NC(=O)[C@@H]2CSSC[C@@H]3NC(=O)[C@H](C(C)C)NC(=O)[C@H](CC(C)C)NC(=O)[C@H](CC(N)=O)NC(=O)[C@@H]4CCCN4C(=O)[C@H](CCCNC(=N)N)NC(=O)[C@H](CSSC[C@H](NC(=O)[C@@H](N)CC(=O)O)C(=O)N[C@@H](CC(C)C)C(=O)NCC(=O)N[C@@H](C)C(=O)N[C@@H](CCSC)C(=O)N[C@@H](CCCNC(=N)N)C(=O)N[C@@H](CCCCN)C(=O)N2)NC(=O)[C@H](CSSC[C@@H](C(=O)N[C@@H](CCCCN)C(=O)N[C@@H](Cc2ccc(O)cc2)C(=O)N[C@H](C(=O)N[C@@H](Cc2ccccc2)C(N)=O)C(C)C)NC(=O)[C@H](Cc2c[nH]c4ccccc24)NC(=O)[C@H](CCCNC(=N)NC)NC(=O)[C@H](Cc2c[nH]cn2)NC(=O)[C@H]([C@@H](C)O)NC(=O)[C@H](CCCNC(=N)N)NC(=O)[C@H](CO)NC3=O)NC(=O)[C@H](CCCCN)NC(=O)[C@H](CC(=O)O)NC(=O)[C@H](CC(N)=O)NC(=O)[C@H](CC(=O)O)NC(=O)[C@@H]2CCCN2C1=O [compound 745] (H-DCLGAMRKCIPDNDKCCRPNLVCSRTH[Arg(Me)]WCKYVF-NH2; disulfide 2-17, 9-23, 16-30) | 6.60 | 4.40 | 6.30
7 | CC[C@H](C)[C@@H]1NC(=O)[C@@H]2CSSC[C@@H]3NC(=O)[C@H](C(C)C)NC(=O)[C@H](CC(C)C)NC(=O)[C@H](CC(N)=O)NC(=O)[C@@H]4CCCN4C(=O)[C@H](CCCNC(=N)N)NC(=O)[C@H](CSSC[C@H](NC(=O)[C@@H](N)CC(=O)O)C(=O)N[C@@H](CC(C)C)C(=O)NCC(=O)N[C@@H](C)C(=O)N[C@@H](CCSC)C(=O)N[C@@H](CCCNC(=N)N)C(=O)N[C@@H](CCCCN)C(=O)N2)NC(=O)[C@H](CSSC[C@@H](C(=O)N[C@@H](CCCCN)C(=O)N[C@@H](Cc2ccc(O)cc2)C(=O)N[C@H](C(=O)N[C@@H](Cc2ccccc2)C(N)=O)C(C)C)NC(=O)[C@H](Cc2c[nH]c4ccccc24)NC(=O)[C@H](CCCN)NC(=O)[C@H](Cc2c[nH]cn2)NC(=O)[C@H]([C@@H](C)O)NC(=O)[C@H](CCCNC(=N)N)NC(=O)[C@H](CO)NC3=O)NC(=O)[C@H](CCCCN)NC(=O)[C@H](CC(=O)O)NC(=O)[C@H](CC(N)=O)NC(=O)[C@H](CC(=O)O)NC(=O)[C@@H]2CCCN2C1=O [compound 746] (H-DCLGAMRKCIPDNDKCCRPNLVCSRTH[Orn]WCKYVF-NH2; disulfide 2-17, 9-23, 16-30) | 6.54 | 4.68 | 6.12
8 | CC[C@H](C)[C@@H]1NC(=O)[C@@H]2CSSC[C@@H]3NC(=O)[C@H](C(C)C)NC(=O)[C@H](CC(C)C)NC(=O)[C@H](CC(N)=O)NC(=O)[C@@H]4CCCN4C(=O)[C@H](CCCNC(=N)N)NC(=O)[C@H](CSSC[C@H](NC(=O)[C@@H](N)CC(=O)O)C(=O)N[C@@H](CC(C)C)C(=O)NCC(=O)N[C@@H](C)C(=O)N[C@@H](CCSC)C(=O)N[C@@H](CCCNC(=N)N)C(=O)N[C@@H](CCCCN)C(=O)N2)NC(=O)[C@H](CSSC[C@@H](C(=O)N[C@@H](CCCCN)C(=O)N[C@@H](Cc2ccc(O)cc2)C(=O)N[C@H](C(=O)N[C@@H](Cc2ccccc2)C(N)=O)C(C)C)NC(=O)[C@H](Cc2c[nH]c4ccccc24)NC(=O)[C@H](CN)NC(=O)[C@H](Cc2c[nH]cn2)NC(=O)[C@H]([C@@H](C)O)NC(=O)[C@H](CCCNC(=N)N)NC(=O)[C@H](CO)NC3=O)NC(=O)[C@H](CCCCN)NC(=O)[C@H](CC(=O)O)NC(=O)[C@H](CC(N)=O)NC(=O)[C@H](CC(=O)O)NC(=O)[C@@H]2CCCN2C1=O [compound 747] (H-DCLGAMRKCIPDNDKCCRPNLVCSRTH[Dap]WCKYVF-NH2; disulfide 2-17, 9-23, 16-30) | 6.43 | 4.42 | 6.11
